Data published in article PMC10824666 (Nature Cancer, 2023).
Like-named read-outs stand apart in the source and are kept apart here. Blank lines part the entries; values can stand above or below the compound they belong to.

How the values were obtained:
Test in all cases: biochemical
Design in all cases: Eurofins DiscoverX kinase panel, competitive binding assay at 1 uM, percent of DMSO control
PI3K delta = target: T1, PI3K delta (Homo sapiens, UniProt O00329); settings: competitive binding, percent of DMSO control
T1 construct: gene PIK3CD
T1 sequence (O00329 1-1044): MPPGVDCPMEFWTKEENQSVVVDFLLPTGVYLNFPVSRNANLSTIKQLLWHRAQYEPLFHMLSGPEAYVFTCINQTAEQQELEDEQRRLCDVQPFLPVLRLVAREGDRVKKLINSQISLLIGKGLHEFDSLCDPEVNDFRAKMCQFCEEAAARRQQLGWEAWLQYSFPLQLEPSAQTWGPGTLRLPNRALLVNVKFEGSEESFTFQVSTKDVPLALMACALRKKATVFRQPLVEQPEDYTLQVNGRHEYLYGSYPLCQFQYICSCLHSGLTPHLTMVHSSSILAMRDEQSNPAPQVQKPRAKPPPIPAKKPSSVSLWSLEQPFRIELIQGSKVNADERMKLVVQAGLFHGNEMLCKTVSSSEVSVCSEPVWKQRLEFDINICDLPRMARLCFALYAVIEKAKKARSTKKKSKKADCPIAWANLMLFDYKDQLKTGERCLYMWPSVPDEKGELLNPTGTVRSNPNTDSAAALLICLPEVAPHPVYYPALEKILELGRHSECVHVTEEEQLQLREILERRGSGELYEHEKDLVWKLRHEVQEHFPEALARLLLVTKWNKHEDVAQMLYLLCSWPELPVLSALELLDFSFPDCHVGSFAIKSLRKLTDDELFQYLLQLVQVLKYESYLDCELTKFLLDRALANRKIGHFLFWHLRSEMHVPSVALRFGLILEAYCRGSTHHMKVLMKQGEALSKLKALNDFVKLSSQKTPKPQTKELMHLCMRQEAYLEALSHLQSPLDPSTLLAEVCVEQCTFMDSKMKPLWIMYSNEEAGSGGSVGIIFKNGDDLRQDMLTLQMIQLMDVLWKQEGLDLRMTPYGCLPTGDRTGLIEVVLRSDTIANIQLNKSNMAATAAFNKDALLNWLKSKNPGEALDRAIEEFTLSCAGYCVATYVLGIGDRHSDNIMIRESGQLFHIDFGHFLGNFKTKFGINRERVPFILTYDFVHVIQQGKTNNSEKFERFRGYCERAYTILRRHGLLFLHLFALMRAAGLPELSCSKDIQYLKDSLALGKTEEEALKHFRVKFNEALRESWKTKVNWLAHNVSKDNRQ
Outline: (§1)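 Single-point profiling at 1 µM compound in a competition-binding format against 96 kinases, read out as POC relative to control; n = 1.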

RPS6KB1 = RPS6KB1 (Homo sapiens, UniProt P23443); settings: competitive binding, percent of DMSO control
RPS6KB1, sequence (P23443 whole entry): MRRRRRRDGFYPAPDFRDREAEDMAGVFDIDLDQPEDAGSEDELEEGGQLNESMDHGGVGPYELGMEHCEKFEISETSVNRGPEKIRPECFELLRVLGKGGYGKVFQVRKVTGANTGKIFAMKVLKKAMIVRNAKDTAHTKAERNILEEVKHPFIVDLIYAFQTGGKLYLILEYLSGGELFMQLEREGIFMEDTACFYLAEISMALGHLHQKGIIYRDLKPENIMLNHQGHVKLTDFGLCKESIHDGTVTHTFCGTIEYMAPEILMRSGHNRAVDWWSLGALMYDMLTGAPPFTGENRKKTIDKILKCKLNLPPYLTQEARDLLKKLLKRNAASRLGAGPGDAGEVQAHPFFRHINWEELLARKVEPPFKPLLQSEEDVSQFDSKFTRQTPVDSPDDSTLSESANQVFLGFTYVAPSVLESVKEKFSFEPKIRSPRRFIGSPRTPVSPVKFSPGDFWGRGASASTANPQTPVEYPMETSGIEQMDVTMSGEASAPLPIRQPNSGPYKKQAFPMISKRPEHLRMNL
Outline: as §1

bRAF = bRAF (Homo sapiens, UniProt P15056); settings: competitive binding, percent of DMSO control
bRAF, sequence (P15056 whole entry): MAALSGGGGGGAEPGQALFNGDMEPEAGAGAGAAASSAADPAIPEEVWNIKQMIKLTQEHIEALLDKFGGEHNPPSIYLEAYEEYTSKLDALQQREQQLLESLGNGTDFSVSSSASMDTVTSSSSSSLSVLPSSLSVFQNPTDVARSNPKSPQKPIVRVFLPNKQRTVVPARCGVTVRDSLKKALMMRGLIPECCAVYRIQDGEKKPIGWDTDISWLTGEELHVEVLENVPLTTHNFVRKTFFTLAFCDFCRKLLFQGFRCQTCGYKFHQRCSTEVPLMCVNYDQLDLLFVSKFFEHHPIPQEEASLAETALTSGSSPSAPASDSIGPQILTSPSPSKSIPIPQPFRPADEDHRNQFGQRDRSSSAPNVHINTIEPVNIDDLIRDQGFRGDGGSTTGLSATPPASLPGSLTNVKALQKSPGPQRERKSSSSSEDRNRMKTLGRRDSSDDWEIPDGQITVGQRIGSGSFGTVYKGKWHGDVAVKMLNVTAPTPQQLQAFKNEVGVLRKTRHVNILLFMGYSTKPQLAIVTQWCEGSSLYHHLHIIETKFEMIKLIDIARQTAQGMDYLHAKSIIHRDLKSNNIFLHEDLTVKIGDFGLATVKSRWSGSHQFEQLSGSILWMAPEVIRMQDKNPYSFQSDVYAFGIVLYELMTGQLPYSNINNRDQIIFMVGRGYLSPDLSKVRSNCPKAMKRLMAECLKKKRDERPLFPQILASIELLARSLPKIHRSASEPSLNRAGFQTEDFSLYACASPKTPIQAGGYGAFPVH
Outline: as §1

PKA alpha = target: T2, PKA alpha (Homo sapiens, UniProt P17612); settings: read-out: Kinome Profiling performed by Eurofins DiscoverX / AM-5308, 1.0 µM / POC; competitive binding, percent of DMSO control
T2 construct: gene PRKACA
Outline: as §1

PKR = target: T3, PKR (Homo sapiens, UniProt P19525); settings: read-out: Kinome Profiling performed by Eurofins DiscoverX / AM-5308, 1.0 µM / POC; competitive binding, percent of DMSO control
T3 construct: gene EIF2AK2
T3 sequence (P19525 whole entry): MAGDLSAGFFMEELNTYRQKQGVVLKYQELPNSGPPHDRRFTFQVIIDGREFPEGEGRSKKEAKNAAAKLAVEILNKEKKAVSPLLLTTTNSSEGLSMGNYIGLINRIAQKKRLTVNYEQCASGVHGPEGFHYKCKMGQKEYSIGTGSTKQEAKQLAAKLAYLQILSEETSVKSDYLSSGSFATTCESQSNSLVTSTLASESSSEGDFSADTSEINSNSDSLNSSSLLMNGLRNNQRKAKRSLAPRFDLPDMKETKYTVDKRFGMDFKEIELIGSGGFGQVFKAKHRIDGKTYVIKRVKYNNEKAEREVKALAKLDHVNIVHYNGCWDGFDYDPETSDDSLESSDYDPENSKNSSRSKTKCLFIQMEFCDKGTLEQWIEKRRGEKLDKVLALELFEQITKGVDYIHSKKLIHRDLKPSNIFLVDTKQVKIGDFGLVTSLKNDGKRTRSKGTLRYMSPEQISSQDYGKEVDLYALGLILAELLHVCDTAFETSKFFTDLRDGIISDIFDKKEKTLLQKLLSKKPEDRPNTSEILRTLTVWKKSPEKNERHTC
Outline: as §1

[1] = read-out: Kinome Profiling performed by Eurofins DiscoverX / AM-1882, 1.0 µM / POC
[2] = read-out: Kinome Profiling performed by Eurofins DiscoverX / AM-5308, 1.0 µM / POC
[3] = read-out: Kinome Profiling performed by Eurofins DiscoverX / AM-0277, 1.0 µM / POC

- remaining activity at 1 µM (PI3K delta; [1]): 96.5%
- remaining activity at 1 µM (RPS6KB1; [1]): 61%
- remaining activity at 1 µM (bRAF; [1]): 94.5%
Structure (SMILES): CC(C)(C)NS(=O)(=O)c1cccc(NC(=O)c2ccc(S(=O)(=O)NC(C)(C)C)cc2N2CCC3(CC2)CC3)c1 [AM-1882]

- remaining activity at 1 µM (PI3K delta; [2]): 68%
- remaining activity at 1 µM (PKA alpha): 100%
- remaining activity at 1 µM (PKR): 90%
- remaining activity at 1 µM (RPS6KB1; [2]): 94.5%
- remaining activity at 1 µM (bRAF; [2]): 92.5%
Structure (SMILES): C[C@@H]1CN(c2cccc(NC(=O)c3ccc(NS(=O)(=O)CCO)cc3N3CCC4(CC3)CC4)n2)CCO1 [AM-5308]

- remaining activity at 1 µM (PI3K delta; [3]): 100%
- remaining activity at 1 µM (RPS6KB1; [3]): 100%
- remaining activity at 1 µM (bRAF; [3]): 100%
Structure (SMILES): CC(C)(CO)Nc1ccc(C(=O)Nc2cccc(S(=O)(=O)C3CCCC3)c2)c(N2CCC3(CC2)CC3)n1 [AM-0277]
